What was measured:
A375 melanoma cells = experiment: Antiproliferation assay in A375 cell line by CellTiter Glo; assay type: cell-based; conditions: Homo sapiens, A-375, 72 hours or 144 hours
Procedure: (§1) In vitro anti-proliferation study of test compounds in A375 cell line by CellTiter Glo. The cells were routinely maintained as a monolayer culture in corresponding culture medium, at 37° C. with 5% CO2 in air.
(§2) Exponential growth cells were harvested by trypsin-EDTA digestion. Cell pellet was re-suspended in fresh culture medium, and the concentration adjusted as needed (the cell density per well was listed in following form). The cell viability was over 98% by Trypan blue staining. Cells were incoluated into 96 wells plates according to the plate map (90 μL/well). Plates were incubated at 37° C. and 5% CO2 overnight. The next day, the 10×compound containing medium was prepared according to the plate map. 10 μL of 10×compound containing medium was transferred into each well of the assay plates (the final DMSO concentration was 0.5%). The medium was gently mixed and incubated at 37° C. and 5% CO2 for another 72 hours or 144 hours.
(§3) Reagent was prepared according to the manufacture's instruction. 50 μL CellTiter-Glo Reagent were added in each well. Contents were mixed for 2 minutes on an orbital shaker to induce cell lysis. The plate was incubated at room temperature for 10 minutes to stabilize luminescent signal. 100 μL of reaction contents were transferred of each well from the clear plates into white walled/white opaque 96-well plates. Luminescence was recorded on Envision.
(§4) Using the luminescence measurements [time zero (T0), control growth (C), and test growth in the presence of drug at the six concentration levels (Ti)], the percentage growth was calculated at each of the drug concentrations levels.
(§5) Percentage growth inhibition (GI) was calculated as: GI (%)=[(Ti−T0)/(C-T0)]×100 for concentrations for which Ti>=T0, and GI (%)=[(Ti−T0)/T0]×100 for concentrations for which Ti<T0. Data were analyzed using the XLFit (Excel) tool, fitting to a 4-parameter equation to generate concentration response curves. Concentration of compound that inhibits 50% of control cell growth (GI50) was back-interpolated when y=50% of net growth of DMSO treated control wells using nonlinear regression with the equation: f(x) 205 [fit=(A+((B−A)/(1+((C/x)^D))))], where A is the minimum response (Ymin), B is the maximum response (Ymax), C is the inflection point of the curve (Re GI50) and D is the Hill coefficient. Growth inhibition of 50% (GI50) was calculated at the 50% Growth inhibition on the curve. Index values were the sum of Inhibition rate (IR) at each tested compound concentration.

HT-29 colon cancer cells = experiment: Antiproliferation assay in HT-29 cells (CellTiter Glo); assay type: cell-based; conditions: Homo sapiens, 72 hours or 144 hours
Procedure: [The source words this procedure for another cell line and reports this cell line under the same test.] as §1, §2, §3, §4, §5

P-glycoprotein (MDR1) = experiment: MDCK-MDR1 permeability assay; assay type: in vitro ADME, canine; conditions: dog; for efflux ratio at 120 min: MDCK-MDR1, Papp(B−A)/Papp(A−B); for Papp A→B at 120 min: MDCK-MDR1, apical to basolateral; for Papp A→B at 120 min / Papp B→A at 120 min: 1-30 μM; for Papp B→A at 120 min: MDCK-MDR1, basolateral to apical
Procedure: MDCK-MDR1 cells originated from transfection of Madin Darby canine kidney (MDCK) cells with the MDR1 gene, the gene encoding for the efflux protein, P-glycoprotein. This cell line is ideal for identifying substrates of P-gp, with or without an inhibitor. The cells were seeded on a Multiscreen™ plate to form a confluent monolayer over 4 days prior to the experiment. On day 4, the test compound (1-30 μM concentration) was added to the apical side of the membrane and the transport of the compound across the monolayer was monitored over a 120 minutes time period. To study drug efflux, it was also necessary to investigate transport of the compound from the basolateral compartment to the apical compartment and calculate an efflux ratio.
(§6) The permeability coefficient (Papp) was calculated from the following equation: […]
where dQ/dt is the rate of permeation of the drug across the cells, C0 is the donor compartment concentration at time zero and A is the area of the cell monolayer.
An efflux ratio was calculated from the mean apical to basolateral (A−B) Papp data and basolateral to apical (B−A) Papp data.
Efflux Ratio=Papp(B−A)/Papp(A−B)

[1] = Caco-2 permeability assay; assay type: in vitro ADME; conditions: human; for efflux ratio at 120 min: Caco-2; for Papp A→B at 120 min: Caco-2, apical to basolateral; for Papp A→B at 120 min / Papp B→A at 120 min: 1-30 uM; for Papp B→A at 120 min: Caco-2, basolateral to apical
Procedure: Caco-2 cells are widely used as an in vitro assay to measure the permeability of a drug compound. The Caco-2 cell line is derived from a human colorectal carcinoma, and when cultured, the cells spontaneously differentiate into monolayers of polarized enterocytes. Caco-2 cells express P-glycoprotein and breast cancer resistance protein, two of the most relevant cell membrane active transporters that affect drug compound's permeability into cells and blood brain barrier.
The cells were seeded on Millipore Millicell plates and formed a confluent monolayer over 20 days prior to the experiment. On day 20, the test compound (1-30 uM concentration) was added to the apical side of the membrane and the transport of the compound across the monolayer was monitored over a 120 minutes time period. To study drug efflux, it was also necessary to investigate transport of the compound from the basolateral compartment to the apical compartment.
as §6
where dQ/dt is the rate of permeation of the drug across the cells, C0 is the donor compartment concentration at time zero and A is the area of the cell monolayer. C0 is obtained from analysis of the dosing solution at the start experiment.

[2] = Mouse pharmacokinetics study; assay type: in vivo; conditions: CD-1 mice; for F / AUC / Cmax / Tmax: PO 25 mg/kg; for Vd / half-life / clearance / AUC / Cmax / Tmax: mouse, plasma; for Vd / half-life / clearance: IV 5 mg/kg; for half-life: 20% Hydroxypropyl-beta-cyclodextrin; for clearance: read-out: Clp
Text: The pharmacokinetic properties of Compounds 5 and 6 was studied in CD-1 mice via intravenous and oral administration by using a standard protocol. The test articles were formulated in 20% Hydroxypropyl-beta-cyclodextrin, either as a clear solution or fine suspension.

Row | Structure (SMILES) | GI50 (A375 melanoma cells) | GI50 (HT-29 colon cancer cells) | efflux ratio at 120 min (P-glycoprotein (MDR1)) | Papp A→B at 120 min (P-glycoprotein (MDR1)) | Papp B→A at 120 min (P-glycoprotein (MDR1)) | other results
1 | O=C(NC1CNC1)c1c(F)cc(F)cc1Nc1ccc(I)cc1F [Compound 1, N-(azetidin-3-yl)-2,4-difluoro-6-((2-fluoro-4-iodophenyl)amino)benzamide] | 100 to 1000 nM | > 1000 nM |  |  |  | 
2 | O=C(NC1CCNC1)c1c(F)cc(F)cc1Nc1ccc(I)cc1F (stereo not shown) [Compound 2, 2,4-difluoro-6-((2-fluoro-4-iodophenyl)amino)-N-(pyrrolidin-3-yl)benzamide] | > 1000 nM |  |  |  |  | 
3 | O=C(NC1CCCNC1)c1c(F)cc(F)cc1Nc1ccc(I)cc1F (stereo not shown) [Compound 3, 2,4-difluoro-6-((2-fluoro-4-iodophenyl)amino)-N-(piperidin-3-yl)benzamide] | > 1000 nM |  |  |  |  | 
4 | O=C(NC1CNC1)c1c(F)c(F)c(F)c(F)c1Nc1ccc(I)cc1F [Compound 4, N-(azetidin-3-yl)-2,3,4,5-tetrafluoro-6-((2-fluoro-4-iodophenyl)amino)benzamide] | 100 to 1000 nM | > 1000 nM |  |  |  | 
5 | O=C(NC1CNC1)c1c(F)cncc1Nc1ccc(I)cc1F [Compound 5, N-(azetidin-3-yl)-3-fluoro-5-((2-fluoro-4-iodophenyl)amino)isonicotinamide] | < 100 nM | < 100 nM | 3.42 | 10.5 ×10⁻⁶ cm/s | 36 ×10⁻⁶ cm/s | 
6 | CCN1CC(NC(=O)c2c(F)cncc2Nc2ccc(I)cc2F)C1 [Compound 6, N-(1-ethylazetidin-3-yl)-3-fluoro-5-((2-fluoro-4-iodophenyl)amino)isonicotinamide] | < 100 nM | < 100 nM | 0.53 | 34.1 ×10⁻⁶ cm/s | 18 ×10⁻⁶ cm/s | efflux ratio at 120 min [1]: 0.47; Papp A→B at 120 min [1]: 89.3 ×10⁻⁶ cm/s; Papp B→A at 120 min [1]: 42.3 ×10⁻⁶ cm/s; F [2]: 62.1 ± 11.4%; Vd [2]: 4.2 ± 0.33 L/kg; half-life [2]: 37.5 ± 2.58 min; clearance [2]: 77.8 ± 8 mL/min/kg; AUC [2]: 3160 ± 641 ng·h/mL; Cmax [2]: 1070 ± 328 ng/mL; Tmax [2]: 30 min
7 | CN1CC(NC(=O)c2c(F)cncc2Nc2ccc(I)cc2F)C1 [Compound 7, 3-fluoro-5-((2-fluoro-4-iodophenyl)amino)-N-(1-methylazetidin-3-yl)isonicotinamide] | < 100 nM |  | 0.58 | 32.5 ×10⁻⁶ cm/s | 19 ×10⁻⁶ cm/s | 
8 | O=C(NC1CN(CCF)C1)c1c(F)cncc1Nc1ccc(I)cc1F [Compound 9, 3-fluoro-5-((2-fluoro-4-iodophenyl)amino)-N-(1-(2-fluoroethyl)azetidin-3-yl)isonicotinamide] |  | < 100 nM |  |  |  | 
9 | C#Cc1ccc(Nc2cncc(F)c2C(=O)NC2CNC2)c(F)c1 [Compound 11, N-(azetidin-3-yl)-3-((4-ethynyl-2-fluorophenyl)amino)-5-fluoroisonicotinamide] | < 100 nM | < 100 nM | 4.08 | 14.6 ×10⁻⁶ cm/s | 59.5 ×10⁻⁶ cm/s | efflux ratio at 120 min [1]: 2.33; Papp A→B at 120 min [1]: 8.79 ×10⁻⁶ cm/s; Papp B→A at 120 min [1]: 20.5 ×10⁻⁶ cm/s; F [2]: 93.1 ± 6.0%; Vd [2]: 67.7 ± 13.9 L/kg; half-life [2]: 542 ± 41.4 min; clearance [2]: 86 ± 12 mL/min/kg; AUC [2]: 4550 ± 301 ng·h/mL; Cmax [2]: 1700 ± 95 ng/mL; Tmax [2]: 40.2 ± 17.4 min
10 | C#Cc1ccc(Nc2cncc(F)c2C(=O)NC2CN(CC)C2)c(F)c1 [Compound 12, N-(1-ethylazetidin-3-yl)-3-((4-ethynyl-2-fluorophenyl)amino)-5-fluoroisonicotinamide] | 100 to 1000 nM | 100 to 1000 nM |  |  |  | 
11 | O=C(NC1CNC1)c1c(Cl)cncc1Nc1ccc(I)cc1F [Compound 13, N-(azetidin-3-yl)-3-chloro-5-((2-fluoro-4-iodophenyl)amino)isonicotinamide] | < 100 nM |  | 11.8 | 4.3 ×10⁻⁶ cm/s | 50.8 ×10⁻⁶ cm/s | 
12 | O=C(NC1CNC1)c1c(F)cncc1Nc1ccc(Br)cc1Cl [Compound 14, N-(azetidin-3-yl)-3-((4-bromo-2-chlorophenyl)amino)-5-fluoroisonicotinamide] | 100 to 1000 nM | > 1000 nM |  |  |  | 
13 | O=C(NC1CNC1)c1ccncc1Nc1ccc(I)cc1F [Compound 15, N-(azetidin-3-yl)-3-((2-fluoro-4-iodophenyl)amino)isonicotinamide] |  | < 100 nM |  |  |  | 
14 | O=C(O)CCN1CC(NC(=O)c2ccncc2Nc2ccc(I)cc2F)C1 [Compound 18, 3-(3-(3-((2-fluoro-4-iodophenyl)amino)isonicotinamido)azetidin-1-yl)propanoic acid] | > 1000 nM |  |  |  |  | 
15 | O=C(O)CCCN1CC(NC(=O)c2ccncc2Nc2ccc(I)cc2F)C1 [Compound 19, 4-(3-(3-((2-fluoro-4-iodophenyl)amino)isonicotinamido)azetidin-1-yl)butanoic acid] | 100 to 1000 nM |  |  |  |  | 
16 | CC(=O)N1CC(NC(=O)c2c(F)cncc2Nc2ccc(I)cc2F)C1 [Compound 20, N-(1-acetylazetidin-3-yl)-3-fluoro-5-((2-fluoro-4-iodophenyl)amino)isonicotinamide] | > 1000 nM |  |  |  |  | 
